Activity calls are given as the source filed them.
How the values were obtained:
[1] = biological target: T1, Probable nicotinate-nucleotide adenylyltransferase (Staphylococcus aureus (strain N315), UniProt P65502); assay type: functional, Staphylococcus aureus subsp. aureus N315; conditions: read-out: IC50_Mean;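 for IC50 Mean: confirmatory dose-response retesting of NadD inhibitor hits first found in an ultra-high-throughput screen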
[2] = biological target: 72 kDa type IV collagenase (Homo sapiens, UniProt P08253); assay: Dose Response validation of uHTS RPN11 inhibitor hits using a MMP-2 Fluorescence assay.; assay type: functional
[3] = biological target: T1, Probable nicotinate-nucleotide adenylyltransferase; assay type: functional, Staphylococcus aureus subsp. aureus N315
[4] = biological target: 26S proteasome non-ATPase regulatory subunit 14 (Homo sapiens, UniProt O00487); assay: inhibition of proteasome subunit RPN11 – biochemical, fluorescence polarization, uHTS hits, confirmation (AID 602368); assay type: functional
[5] = biological target: Prothrombin (Bos taurus, UniProt P00735); assay: thrombin protease inhibitors – biochemical, fluorescence polarization, uHTS hits, dose response (AID 602369); assay type: functional
[6] = tested on: Streptococcus; assay: GAS UMAA2166 growth inhibition – luminescence, BacTiterGlo, counter-screen for streptokinase expression inhibitor project, dose response (AID 1915); assay type: functional, organism-based;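 note: potency for reduction of bacterial viability or growth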
[7] = biological target: T2, Fatty acid synthase (Homo sapiens, UniProt P49327); assay: inhibition of human FAS-TE enzyme activity – biochemical, kinetic fluorescence intensity, dose response (AID 624326); assay type: functional;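 note: rate of fluorescence rise from hydrolysis of a fluorogenic O-methyl fluorescein ester substrate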
[8] = biological target: T3, Kappa-type opioid receptor (Homo sapiens, UniProt P41145); assay type: functional
[9] = biological target: T3, Kappa-type opioid receptor; assay type: functional; remark: listed apart in the source
[10] = biological target: T4, Delta-type opioid receptor (Homo sapiens, UniProt P41143); assay: HTS Image-Based Screen for Agonists of the DOR Receptor. [Related pubchem assays (depositor defined):AID1777, AID1786, AID2133]; assay type: functional
[11] = tested on: Streptococcus sp. 'group A'; assay: Streptococcus pyogenes SK(-)GAS viability under kanamycin – luminescence, BacTiterGlo, confirmation, counter-screen for streptokinase expression inhibitor project, dose response (AID 1900); assay type: functional, organism-based
[12] = biological target: Beta Lactamase (Pseudomonas aeruginosa, UniProt Q932Y6); assay: BLA reporter interference, concentration series – BLA reporter cells, FRET fluorescence, artefact control for TLR9-MyD88 binding inhibitor project, dose response (AID 588341); assay type: cell-based;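 note: cell based assay in CHO-K1 cells stably expressing beta-lactamase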
[13] = biological target: Induced myeloid leukemia cell differentiation protein Mcl-1 (Homo sapiens, UniProt Q07820); assay type: functional
[14] = tested on: CHO; assay: CHO cell viability loss, potency – luminescence, cytotoxicity control for TLR9-MyD88 binding inhibitor project, dose response (AID 588339); assay type: functional, cell-based, hamster; conditions: Cricetulus griseus;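 note: CHO cells stably coexpressing TLR9 and MyD88 fusions from primary screen; compound exposure lasted 48 hours before viability readout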
[15] = biological target: Beta-galactosidase (Escherichia coli, UniProt Q8VNN2); assay type: functional
[16] = biological target: T5, Streptokinase A (Streptococcus pyogenes serotype M1, UniProt P10520); assay: viability-normalized secreted streptokinase activity reduction – plasminogen activation absorbance, OD405, dose response (AID 1914); assay type: functional, Streptococcus pyogenes M1 GAS;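 note: secreted streptokinase activity via plasminogen activation per viability signal from cell pellet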
T5 sequence (P10520 whole entry): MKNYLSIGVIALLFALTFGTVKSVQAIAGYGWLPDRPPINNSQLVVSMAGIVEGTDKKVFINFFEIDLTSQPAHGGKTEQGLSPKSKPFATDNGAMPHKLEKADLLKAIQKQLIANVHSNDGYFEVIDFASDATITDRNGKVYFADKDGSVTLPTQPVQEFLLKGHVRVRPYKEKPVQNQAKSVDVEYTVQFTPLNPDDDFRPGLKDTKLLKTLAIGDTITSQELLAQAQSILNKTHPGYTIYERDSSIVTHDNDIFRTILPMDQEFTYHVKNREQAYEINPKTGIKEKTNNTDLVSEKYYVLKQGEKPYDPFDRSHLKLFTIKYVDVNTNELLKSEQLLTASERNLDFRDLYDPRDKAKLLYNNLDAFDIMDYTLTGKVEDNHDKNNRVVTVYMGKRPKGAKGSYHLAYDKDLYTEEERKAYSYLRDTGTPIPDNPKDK

[17] = biological target: T2, Fatty acid synthase; assay: inhibition of human FAS-TE enzyme activity – biochemical, endpoint fluorescence intensity, uHTS hits, dose response (AID 624327); assay type: functional;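 note: fluorescence from hydrolysis of an O-methyl fluorescein acyl ester substrate by the enzyme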
[18] = biological target: T4, Delta-type opioid receptor; assay: HTS Image-Based Screen for Antagonists of the DOR Receptor. [Related pubchem assays (depositor defined):AID1777, AID1785, AID1786, AID2133]; assay type: functional
[19] = biological target: Mu-type opioid receptor (Homo sapiens, UniProt P35372); assay: HTS Image-Based Screen for Agonists of the MOR Receptor. [Related pubchem assays (depositor defined):AID1777, AID1785, AID1786, AID2133]; assay type: functional;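 note: imaging of beta-arrestin GFP recruitment into spots after receptor activation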
[20] = biological target: Bifunctional protein GlmU (Mycobacterium tuberculosis, UniProt P9WMN3); assay: Inhibitors of Mycobacterial Glucosamine-1-phosphate acetyl transferase (GlmU). Secondary screen.; set-up: species or system Mycobacterium tuberculosis H37Rv
[21] = biological target: T6, Protein RecA (Mycobacterium tuberculosis, UniProt P9WHJ3); assay: Fluorescence Cell-Free Homogeneous Dose Retest to Identify Inhibitors of RecA-Intein Splicing Activity. [Related pubchem assays (depositor defined):AID2097, AID2223, AID489010, AID492950]; assay type: functional
T6 sequence (P9WHJ3 whole entry): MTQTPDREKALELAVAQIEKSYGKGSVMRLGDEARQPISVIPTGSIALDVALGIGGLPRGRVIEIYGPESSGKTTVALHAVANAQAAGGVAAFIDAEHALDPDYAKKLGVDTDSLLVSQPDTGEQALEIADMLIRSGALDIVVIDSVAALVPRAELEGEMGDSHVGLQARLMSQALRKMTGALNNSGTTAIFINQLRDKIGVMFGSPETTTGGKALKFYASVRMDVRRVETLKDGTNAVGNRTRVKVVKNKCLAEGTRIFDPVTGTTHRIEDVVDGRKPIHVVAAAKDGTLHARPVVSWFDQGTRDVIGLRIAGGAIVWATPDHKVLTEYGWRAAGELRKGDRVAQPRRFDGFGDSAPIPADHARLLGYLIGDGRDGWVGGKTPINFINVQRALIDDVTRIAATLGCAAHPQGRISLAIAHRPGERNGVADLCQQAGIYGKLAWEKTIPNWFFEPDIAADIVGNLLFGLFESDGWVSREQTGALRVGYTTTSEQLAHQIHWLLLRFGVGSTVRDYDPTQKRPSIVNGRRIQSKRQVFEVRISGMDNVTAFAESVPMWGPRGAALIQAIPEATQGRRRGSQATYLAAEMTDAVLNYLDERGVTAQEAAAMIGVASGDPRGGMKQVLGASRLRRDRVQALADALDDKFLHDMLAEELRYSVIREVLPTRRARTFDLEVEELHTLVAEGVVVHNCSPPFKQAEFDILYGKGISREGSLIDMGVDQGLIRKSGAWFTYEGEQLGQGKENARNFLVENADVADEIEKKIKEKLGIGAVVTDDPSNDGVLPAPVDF

[22] = biological target: T7, Replicative DNA helicase DnaB (Mycobacterium tuberculosis, UniProt P9WMR3); assay: DnaB intein splicing inhibitors, dose response, biochemical, cell-free fluorescence (AID 449749); assay type: functional
T7 sequence (P9WMR3 whole entry): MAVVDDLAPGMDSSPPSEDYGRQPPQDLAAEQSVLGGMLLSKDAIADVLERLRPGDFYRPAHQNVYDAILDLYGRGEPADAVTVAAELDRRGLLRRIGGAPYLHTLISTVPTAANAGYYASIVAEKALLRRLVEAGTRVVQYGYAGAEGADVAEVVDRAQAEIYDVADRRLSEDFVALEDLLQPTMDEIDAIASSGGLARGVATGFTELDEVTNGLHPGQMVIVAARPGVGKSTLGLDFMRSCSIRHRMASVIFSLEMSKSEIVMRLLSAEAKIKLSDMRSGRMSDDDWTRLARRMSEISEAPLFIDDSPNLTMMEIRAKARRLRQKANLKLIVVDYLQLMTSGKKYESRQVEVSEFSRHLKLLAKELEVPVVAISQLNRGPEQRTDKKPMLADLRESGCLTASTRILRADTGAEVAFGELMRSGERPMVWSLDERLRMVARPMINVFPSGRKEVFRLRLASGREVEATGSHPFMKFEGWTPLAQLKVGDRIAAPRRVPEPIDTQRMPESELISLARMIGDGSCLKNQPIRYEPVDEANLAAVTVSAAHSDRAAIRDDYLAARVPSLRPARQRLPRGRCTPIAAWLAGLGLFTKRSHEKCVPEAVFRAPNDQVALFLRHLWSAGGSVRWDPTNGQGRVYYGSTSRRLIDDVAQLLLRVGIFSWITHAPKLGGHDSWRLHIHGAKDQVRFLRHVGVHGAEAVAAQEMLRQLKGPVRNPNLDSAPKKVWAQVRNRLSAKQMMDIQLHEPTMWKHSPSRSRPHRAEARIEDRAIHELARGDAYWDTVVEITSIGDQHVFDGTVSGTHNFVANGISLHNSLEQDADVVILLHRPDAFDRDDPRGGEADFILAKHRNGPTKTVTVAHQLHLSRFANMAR

[23] = biological target: T8, Insulin-degrading enzyme (Homo sapiens, UniProt P14735); assay: recombinant IDE activation, cell-free – biochemical, fluorescence polarization, counter-screen for IDE activator project, dose response (AID 588681)
T8 sequence (P14735 whole entry): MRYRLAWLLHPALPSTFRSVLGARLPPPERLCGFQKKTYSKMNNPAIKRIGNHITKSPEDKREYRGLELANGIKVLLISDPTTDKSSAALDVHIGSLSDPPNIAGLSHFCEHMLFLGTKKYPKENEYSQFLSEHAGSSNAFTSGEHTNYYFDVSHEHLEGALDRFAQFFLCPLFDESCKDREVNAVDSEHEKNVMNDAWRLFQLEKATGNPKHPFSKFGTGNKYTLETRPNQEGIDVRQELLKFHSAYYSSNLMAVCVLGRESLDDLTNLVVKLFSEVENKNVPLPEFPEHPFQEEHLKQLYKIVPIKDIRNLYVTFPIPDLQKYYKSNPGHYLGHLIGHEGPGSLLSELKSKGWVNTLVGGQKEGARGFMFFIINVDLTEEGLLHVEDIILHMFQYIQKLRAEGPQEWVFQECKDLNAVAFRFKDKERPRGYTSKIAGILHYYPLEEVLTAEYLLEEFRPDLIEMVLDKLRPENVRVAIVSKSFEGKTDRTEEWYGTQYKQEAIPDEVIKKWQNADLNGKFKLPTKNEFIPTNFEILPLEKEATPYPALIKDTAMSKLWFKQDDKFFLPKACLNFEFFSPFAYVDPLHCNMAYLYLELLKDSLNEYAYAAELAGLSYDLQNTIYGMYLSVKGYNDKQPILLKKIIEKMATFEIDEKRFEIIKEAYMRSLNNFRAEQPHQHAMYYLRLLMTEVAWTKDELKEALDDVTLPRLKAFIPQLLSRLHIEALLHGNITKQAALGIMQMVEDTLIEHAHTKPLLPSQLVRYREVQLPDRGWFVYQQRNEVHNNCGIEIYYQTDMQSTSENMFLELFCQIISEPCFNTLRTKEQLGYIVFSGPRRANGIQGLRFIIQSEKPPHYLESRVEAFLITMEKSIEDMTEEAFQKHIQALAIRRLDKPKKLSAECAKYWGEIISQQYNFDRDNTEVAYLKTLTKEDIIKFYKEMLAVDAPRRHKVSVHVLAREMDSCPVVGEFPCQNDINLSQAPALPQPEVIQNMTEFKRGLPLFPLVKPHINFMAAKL

[24] = biological target: T8, Insulin-degrading enzyme; assay: cellular IDE activation of Abeta substrate cleavage – fluorescence polarization, HEK cells, dose response (AID 588439); assay type: functional, cell-based
[25] = tested on: HEK293; assay: optical interference in Abeta FP readout, dose response, artefact control for IDE activator project, biochemical, fluorescence polarization (AID 588442); assay type: functional, cell-based; conditions: Homo sapiens
[26] = tested on: HEK293; assay: membrane integrity loss in HEK cells – cell-based, fluorescence, cytotoxicity control for IDE activator project, dose response (AID 588440); assay type: functional; conditions: Homo sapiens;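 note: cytotoxicity by LDH release measuring loss of membrane integrity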

T3 sequence (P41145 whole entry): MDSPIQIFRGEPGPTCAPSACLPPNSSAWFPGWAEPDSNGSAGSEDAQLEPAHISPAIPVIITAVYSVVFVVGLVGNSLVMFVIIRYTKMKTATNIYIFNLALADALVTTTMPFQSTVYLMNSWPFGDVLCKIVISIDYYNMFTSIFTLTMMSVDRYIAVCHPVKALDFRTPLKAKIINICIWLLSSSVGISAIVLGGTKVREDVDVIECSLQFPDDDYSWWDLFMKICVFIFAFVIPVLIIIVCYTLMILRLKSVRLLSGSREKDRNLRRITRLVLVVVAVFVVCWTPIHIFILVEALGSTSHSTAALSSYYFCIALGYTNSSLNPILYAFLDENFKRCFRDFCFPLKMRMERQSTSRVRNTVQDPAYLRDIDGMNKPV
T4 sequence (P41143 whole entry): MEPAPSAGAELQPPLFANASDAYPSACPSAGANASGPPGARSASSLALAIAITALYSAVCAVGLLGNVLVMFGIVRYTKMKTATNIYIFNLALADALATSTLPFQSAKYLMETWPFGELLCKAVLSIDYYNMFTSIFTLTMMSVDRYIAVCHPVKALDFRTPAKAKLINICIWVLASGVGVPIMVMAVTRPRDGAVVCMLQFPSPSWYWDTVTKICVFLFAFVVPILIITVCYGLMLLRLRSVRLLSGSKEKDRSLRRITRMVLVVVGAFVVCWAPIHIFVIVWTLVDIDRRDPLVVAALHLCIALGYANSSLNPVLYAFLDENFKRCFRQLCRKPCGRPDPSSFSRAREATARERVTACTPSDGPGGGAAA
T2 sequence (P49327 whole entry): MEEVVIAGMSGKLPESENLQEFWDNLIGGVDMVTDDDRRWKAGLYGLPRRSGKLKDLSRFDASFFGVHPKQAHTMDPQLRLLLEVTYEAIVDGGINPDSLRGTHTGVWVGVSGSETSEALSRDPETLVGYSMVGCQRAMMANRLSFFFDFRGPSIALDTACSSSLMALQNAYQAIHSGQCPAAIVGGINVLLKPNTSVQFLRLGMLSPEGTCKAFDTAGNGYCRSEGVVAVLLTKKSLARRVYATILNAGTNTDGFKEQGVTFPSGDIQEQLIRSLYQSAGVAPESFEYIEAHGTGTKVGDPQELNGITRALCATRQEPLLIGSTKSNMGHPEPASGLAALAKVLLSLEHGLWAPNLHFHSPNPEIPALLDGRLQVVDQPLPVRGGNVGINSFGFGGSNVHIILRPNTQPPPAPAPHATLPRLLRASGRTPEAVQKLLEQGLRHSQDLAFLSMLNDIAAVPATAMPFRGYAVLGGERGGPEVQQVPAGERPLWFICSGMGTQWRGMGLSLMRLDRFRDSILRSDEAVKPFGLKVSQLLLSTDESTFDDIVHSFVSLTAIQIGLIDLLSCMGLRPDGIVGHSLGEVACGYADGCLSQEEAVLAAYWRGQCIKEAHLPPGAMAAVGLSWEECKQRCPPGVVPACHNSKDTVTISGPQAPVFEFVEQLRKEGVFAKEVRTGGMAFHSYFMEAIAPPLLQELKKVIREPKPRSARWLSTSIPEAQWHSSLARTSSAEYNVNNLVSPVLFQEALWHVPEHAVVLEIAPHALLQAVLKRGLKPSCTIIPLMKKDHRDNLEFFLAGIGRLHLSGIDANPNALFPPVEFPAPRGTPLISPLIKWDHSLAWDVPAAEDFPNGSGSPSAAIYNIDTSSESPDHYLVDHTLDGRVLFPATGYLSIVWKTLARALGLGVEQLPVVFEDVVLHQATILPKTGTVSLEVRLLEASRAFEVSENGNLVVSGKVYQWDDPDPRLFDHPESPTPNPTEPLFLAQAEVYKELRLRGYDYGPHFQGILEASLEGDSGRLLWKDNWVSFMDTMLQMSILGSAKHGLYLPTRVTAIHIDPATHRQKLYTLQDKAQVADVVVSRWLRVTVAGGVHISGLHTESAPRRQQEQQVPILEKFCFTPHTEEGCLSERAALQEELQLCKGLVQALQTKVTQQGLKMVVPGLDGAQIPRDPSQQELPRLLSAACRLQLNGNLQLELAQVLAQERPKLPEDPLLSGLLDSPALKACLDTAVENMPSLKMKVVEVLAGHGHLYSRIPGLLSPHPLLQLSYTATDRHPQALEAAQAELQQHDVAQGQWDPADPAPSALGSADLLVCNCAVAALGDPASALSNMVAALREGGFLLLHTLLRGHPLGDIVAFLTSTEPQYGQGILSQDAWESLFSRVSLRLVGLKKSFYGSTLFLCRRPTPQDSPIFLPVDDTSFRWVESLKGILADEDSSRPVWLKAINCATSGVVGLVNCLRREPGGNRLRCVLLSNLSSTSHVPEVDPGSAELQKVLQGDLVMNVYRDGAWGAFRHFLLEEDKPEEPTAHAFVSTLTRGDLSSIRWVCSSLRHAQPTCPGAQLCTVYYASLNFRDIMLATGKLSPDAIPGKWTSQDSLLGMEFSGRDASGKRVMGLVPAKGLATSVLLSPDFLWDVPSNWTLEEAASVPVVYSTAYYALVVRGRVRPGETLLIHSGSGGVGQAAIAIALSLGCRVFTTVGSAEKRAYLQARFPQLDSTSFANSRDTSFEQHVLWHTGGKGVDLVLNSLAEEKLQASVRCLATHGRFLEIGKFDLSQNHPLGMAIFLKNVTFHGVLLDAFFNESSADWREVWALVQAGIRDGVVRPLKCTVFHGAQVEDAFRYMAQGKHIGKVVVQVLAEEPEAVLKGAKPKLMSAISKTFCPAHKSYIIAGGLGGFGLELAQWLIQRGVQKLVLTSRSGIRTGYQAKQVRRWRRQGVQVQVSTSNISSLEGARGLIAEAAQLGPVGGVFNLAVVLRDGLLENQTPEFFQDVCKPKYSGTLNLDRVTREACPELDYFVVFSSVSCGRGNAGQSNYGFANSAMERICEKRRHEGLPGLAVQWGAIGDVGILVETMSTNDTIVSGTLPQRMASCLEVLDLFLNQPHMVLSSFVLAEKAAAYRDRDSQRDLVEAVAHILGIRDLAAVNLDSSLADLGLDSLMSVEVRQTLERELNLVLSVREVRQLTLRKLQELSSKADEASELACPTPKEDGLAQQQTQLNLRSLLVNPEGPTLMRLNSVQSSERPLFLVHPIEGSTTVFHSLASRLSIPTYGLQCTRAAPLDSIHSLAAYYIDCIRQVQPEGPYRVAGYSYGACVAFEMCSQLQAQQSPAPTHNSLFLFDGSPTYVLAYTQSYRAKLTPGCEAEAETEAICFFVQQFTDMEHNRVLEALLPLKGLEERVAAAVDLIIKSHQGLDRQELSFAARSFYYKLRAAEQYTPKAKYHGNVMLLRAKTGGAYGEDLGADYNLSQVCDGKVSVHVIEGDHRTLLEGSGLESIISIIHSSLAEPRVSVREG
T1 sequence (P65502 whole entry): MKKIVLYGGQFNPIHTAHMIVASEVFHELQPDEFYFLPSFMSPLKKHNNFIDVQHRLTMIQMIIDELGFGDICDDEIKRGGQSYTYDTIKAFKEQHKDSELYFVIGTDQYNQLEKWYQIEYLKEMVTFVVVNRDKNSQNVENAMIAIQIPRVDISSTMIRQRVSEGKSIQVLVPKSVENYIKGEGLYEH
Sequence of Beta-galactosidase (Q8VNN2 whole entry): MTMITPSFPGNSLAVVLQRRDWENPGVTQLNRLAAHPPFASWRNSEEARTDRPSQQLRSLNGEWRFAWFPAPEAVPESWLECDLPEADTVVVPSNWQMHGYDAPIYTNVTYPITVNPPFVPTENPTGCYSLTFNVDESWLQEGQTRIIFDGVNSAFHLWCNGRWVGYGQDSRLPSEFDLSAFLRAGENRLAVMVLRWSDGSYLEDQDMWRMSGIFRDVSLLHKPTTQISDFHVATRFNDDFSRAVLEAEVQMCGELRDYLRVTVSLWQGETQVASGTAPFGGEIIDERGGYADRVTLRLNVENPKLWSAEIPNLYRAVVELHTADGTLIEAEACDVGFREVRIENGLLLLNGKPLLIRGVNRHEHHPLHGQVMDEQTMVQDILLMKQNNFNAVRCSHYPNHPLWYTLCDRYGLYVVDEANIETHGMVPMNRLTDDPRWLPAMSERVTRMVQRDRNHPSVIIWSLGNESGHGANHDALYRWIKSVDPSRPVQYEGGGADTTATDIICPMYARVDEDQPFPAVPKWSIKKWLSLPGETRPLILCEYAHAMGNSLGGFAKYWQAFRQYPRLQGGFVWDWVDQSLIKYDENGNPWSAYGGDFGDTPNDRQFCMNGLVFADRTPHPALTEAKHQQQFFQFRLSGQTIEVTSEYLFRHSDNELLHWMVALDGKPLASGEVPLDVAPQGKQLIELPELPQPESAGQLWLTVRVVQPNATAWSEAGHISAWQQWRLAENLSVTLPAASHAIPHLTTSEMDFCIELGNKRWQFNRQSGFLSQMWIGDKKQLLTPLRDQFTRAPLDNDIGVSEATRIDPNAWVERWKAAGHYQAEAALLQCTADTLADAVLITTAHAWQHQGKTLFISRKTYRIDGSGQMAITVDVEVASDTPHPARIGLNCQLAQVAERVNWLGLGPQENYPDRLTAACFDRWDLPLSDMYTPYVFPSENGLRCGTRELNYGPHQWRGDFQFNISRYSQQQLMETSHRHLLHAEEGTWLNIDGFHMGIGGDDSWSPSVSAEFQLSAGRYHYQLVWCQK
Sequence of Mu-type opioid receptor (P35372 whole entry): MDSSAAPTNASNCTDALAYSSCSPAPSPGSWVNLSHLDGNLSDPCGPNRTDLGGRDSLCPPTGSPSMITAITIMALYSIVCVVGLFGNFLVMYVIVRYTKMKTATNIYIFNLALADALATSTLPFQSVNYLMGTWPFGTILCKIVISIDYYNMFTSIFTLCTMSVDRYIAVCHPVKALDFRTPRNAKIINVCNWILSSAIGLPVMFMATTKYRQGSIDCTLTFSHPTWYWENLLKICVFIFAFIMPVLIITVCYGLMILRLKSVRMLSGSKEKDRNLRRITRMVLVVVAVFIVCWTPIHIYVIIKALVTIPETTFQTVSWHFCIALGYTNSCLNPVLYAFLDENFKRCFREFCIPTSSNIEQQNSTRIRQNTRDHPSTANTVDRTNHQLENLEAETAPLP

Cc1ccccc1CN1C(=O)C(C)Sc2ccc(-c3ccco3)cc21 (stereo unspecified)
IC50 [1]: 31.3 µM (active)
IC50 [2]: > 100 µM (inactive)
IC50 [3]: 14.2 µM (active)
IC50 [4]: 36.2 µM (active)
IC50 [5]: 43.3 µM (active)

Cc1nnc(Sc2cc(NCCCO)c([N+](=O)[O-])c3nonc23)s1
EC50 [6]: 7.62 µM (active)
IC50 [7]: 3.99 µM (active)
IC50 [8]: 6.15 µM (active)
IC50 [9]: > 32 µM
EC50 [10]: > 32 µM (inactive)
EC50 [11]: 6.33 µM (active)
IC50 [12]: 10.9 µM (inactive)
IC50 [13]: 3.11 µM (active)
IC50 [14]: 3.37 µM (active)
EC50 [15]: > 31.5 µM (inactive)
EC50 [16]: 21.2 µM (inconclusive)
IC50 [17]: 3.78 µM (active)
IC50 [18]: > 32 µM (inactive)
EC50 [19]: > 32 µM (inactive)
IC50 [20]: 77.8 µM (active)
EC50 [21]: 1.85 µM (active)
AC50 [22]: 2.07 µM (active)

O=C1CC2(CCCC2)CC(=O)N1c1ccccc1
EC50 [23]: > 54.7 µM (inactive)
EC50 [24]: > 54.7 µM (inactive)
EC50 [25]: > 55.9 µM (inactive)
IC50 [26]: > 89.1 µM (inactive)
